≈ marks a conversion by molar mass, not a printed value. Entries after “also recorded” stand apart in the source; their conditions may differ. Where two headings read alike, the source gives them in different places.
How the values were obtained:
[1] = biological target: LecB PAO1 (Pseudomonas aeruginosa, UniProt Q9HYN5); assay type: binding; details: target LecB PAO1; for Ki: calculated as Ki from IC50, read-out: Ki ± s.d.
Procedure: LecB (LecB PAO1 according to Hauck et al. and LecB PA14 according to Sommer et al.): A serial dilution of the test compounds was prepared in TBS/Ca, with 20% DMSO as cosolvent. […] Fluorescence was measured and analysed as for LecA. Bottom and top plateaus were fixed according to the control compound in each assay (1-fucose) and the data was re-analysed with these values fixed. A minimum of three independent measurements on three plates was performed for each inhibitor.

[2] = biological target: LecB PA14 (Pseudomonas aeruginosa, UniProt A0A0H2ZE85); assay type: binding; details: target LecB PA14
Sequence of LecB PA14 (A0A0H2ZE85 entry or part of it): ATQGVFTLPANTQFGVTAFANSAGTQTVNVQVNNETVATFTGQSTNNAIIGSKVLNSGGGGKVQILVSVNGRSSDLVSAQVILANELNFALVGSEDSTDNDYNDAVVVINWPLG
Procedure: LecB (LecB PAO1 according to Hauck et al. and LecB PA14 according to Sommer et al.): A serial dilution of the test compounds was prepared in TBS/Ca, with 20% DMSO as cosolvent. A concentrated solution of LecB PAO1 or PA14 was diluted in TBS/Ca together with the fluorescent reporter ligand (N-(fluorescein-5-yl)-N′-(α-l-fucopyranosyl ethylen)-thiocarbamide) to yield concentrations of 300 nM and 20 nM, respectively. 10 μL of this mix was added to 10 μL serial dilutions of the test compounds in a black 384-well microtiter plates (Greiner Bio-One, Germany, cat. no. 781900) in triplicates. After centrifugation (2680 ref, 1 min, room temperature), the reactions were incubated for 4-8 h at room temperature in a humidity chamber. Fluorescence was measured and analysed as for LecA. Bottom and top plateaus were fixed according to the control compound in each assay (1-fucose) and the data was re-analysed with these values fixed. A minimum of three independent measurements on three plates was performed for each inhibitor.

[3] = Prodrug activation assay in human blood plasma spiked with P. aeruginosa PA14 culture supernatant; assay type: in vitro ADME, Pseudomonas aeruginosa PA14; details: 50% human blood plasma spiked with 10% P. aeruginosa culture supernatant, within 3 h
Procedure: In the prodrug activation assay, the bacterial strain Pseudomonas aeruginosa PA14 wt (DSM 19882) was used. The strain was obtained from the German Collection of Microorganisms and Cell Cultures (DSMZ).
(§1) P. aeruginosa PA14 was streaked on LB-agar plates (1% agar) from glycerol stocks and incubated at 37° C. overnight. 2-5 colonies were picked and dispersed in 10 mL LB (10 g/L trypton, 10 g/L NaCl, 5 g/L yeast extracts). This dispersion was incubated overnight at 37° C., 180 rpm under high humidity. The culture was centrifuged (4000 ref, room temperature, 10 min) and the supernatant was filtered (0.22 m pore size). […]
(§2) A 1 mM solution of the studied compound was prepared in PBS (150 mM NaCl, 2.6 mM KCl, 1.4 mM KH2PO4, 10 mM Na2HPO4, pH 7.4) with 20% DMSO. 50 μL of this solution was diluted in 950 μL matrix or human plasma (spiked with 10% LB) on ice. After brief vortex, 100 μL were immediately treated with 100 μL ice-cold MeCN (spiked with […] diphenhydramine as internal standard). The rest of the solution was incubated at 37° C. and 500 rpm in an eppendorf thermomixer. At various time points (30, 60, 120, 180 min), 100 L sample were taken and treated as described above. […] The AUC of the parent drug and its cleavage products and the internal standard was quantified using Compass QuantAnalysis quantification software. The relative AUC was calculated by AUC (compound)/AUC(ISTD). Procaine was used as a positive control as it readily degrades in human plasma.

[4] = Stability of conjugates in human blood plasma spiked with LB; assay type: in vitro ADME; details: 50% human blood plasma spiked with 10% LB, within three hours
Procedure: as §2

[5] = test system: P. aeruginosa PA14; assay: Antibiotic susceptibility (MIC assay, broth microdilution); assay type: cell-based, Pseudomonas aeruginosa PA14
Procedure: Bacterial strains were streaked on LB-agar plates (1% agar) from glycerol stocks and incubated at 37° C. overnight. Colonies were picked from plate and dispersed in fresh MiGler-Hinton broth II (MHB II) to yield an OD600 of 0.08-0.13. This dispersion was diluted 1:100 in fresh MHB II, which was then used for the assay to achieve a final inoculum of 5×10^5 CFU/mL. 50 μL inoculum was mixed with 50 μL of the serial dilution in the corresponding well of the 96-well plate.
The different matrices were prepared under sterile conditions: (i) 5 mL human plasma and 1 mL sterile filtrate from an P. aeruginosa PA14 overnight culture in LB were mixed with 4 mL PBS; (ii) 1 mL sterile filtrate from an P. aeruginosa PA14 overnight culture was diluted in 9 mL PBS; (iii) PBS only and (iv) 5 mL human plasma and 1 mL LB were mixed with 4 mL PBS. 6 L of each compound dilution series was diluted in 115 L matrix (˜-1:20 dilution) in a 96-well format at time point T=−3 h or T=−10 min.
The plates prepared at T=−3 h were sealed with gas-permeable foil and incubated at 37° C. in a humid incubator. The other plates were kept at room temperature. At T=0 h, 50 µL of each well was mixed with 50 μL incoculum (as described above) in double-concentrated MHBII in a sterile 96-well plate.
The plates were sealed with gas-permeable foil and incubated at 37° C. for 18-20 h in a humid incubator. Growth inhibition was assessed by visual inspection and given MIC values are the lowest concentration of antibiotic at which there was no visible growth.

[6] = Cleavage / stability in PA14-filtrate without human blood plasma; assay type: in vitro ADME, Pseudomonas aeruginosa PA14; details: up to 24 h
Procedure: as §1, §2

[7] = biological target: T1, LecA (Pseudomonas aeruginosa, UniProt Q05097); assay: Isothermal titration calorimetry with LecA; assay type: binding
T1 construct: made in house
T1 sequence (Q05097 whole entry): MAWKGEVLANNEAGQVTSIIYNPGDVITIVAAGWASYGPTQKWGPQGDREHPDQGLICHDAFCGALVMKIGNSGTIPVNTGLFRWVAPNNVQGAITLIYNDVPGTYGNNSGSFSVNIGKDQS
Procedure: Isothermal titration calorimetry was performed on an iTC200 (Malvern Panalytical) and the data were analyzed using Microcal Origin software (Malvern Panalytical). LecA in the cell was titrated with ligand in TBS/Ca^2+ buffer supplemented with 5% DMSO at 25° C. Steep titration slopes were the result of high amount of protein present and the high binding affinity of the ligand (high ‘value of c’).
Isothermal titration calorimetry was performed on an iTC200 (Malvern Panalytical) and the data were analyzed using Microcal Origin software (Malvern Panalytical).

[8] = biological target: T1, LecA; assay: Competitive binding assay based on fluorescence polarization with LecA
Procedure: LecA (according to Joachim et al.): A serial dilution of the test compounds was prepared in TBS/Ca (8.0 g/L NaCl, 2.4 g/L Tris, 0.19 g/L KCl, 0.15 g/L CaCl2·2 H2O), with 30% DMSO as co-solvent. […] The measured intensities were reduced by the values of only LecA in TBS/Ca and fluorescence polarization was calculated. The data was analysed with the MARS Data Analysis Software (BMG Labtech GmbH, Germany) and fitted according to the four-parameter variable slope model. Bottom and top plateaus were fixed according to the control compounds in each assay ((p-nitrophenyl)-p-D-galactoside) and the data was re-analysed with these values fixed. A minimum of three independent measurements on three plates was performed for each inhibitor.
Averages and standard deviations were calculated from at least three independent experiments.

[9] = Matrix 1: PBS, pre-incubation 3 h
[10] = Matrix 1: PBS, pre-incubation <10 min
[11] = Matrix 2: 50% human blood plasma + 10% P. aeruginosa culture supernatant in PBS, pre-incubation 3 h
[12] = Matrix 3: 10% P. aeruginosa culture supernatant in PBS, pre-incubation 3 h
[13] = Matrix 3: 10% P. aeruginosa culture supernatant in PBS, pre-incubation <10 min
[14] = Matrix 4: 50% human blood plasma + 10% LB in PBS, pre-incubation 3 h
[15] = Matrix 4: 50% human blood plasma + 10% LB in PBS, pre-incubation <10 min
[16] = Matrix 2: 50% human blood plasma + 10% P. aeruginosa culture supernatant in PBS, pre-incubation <10 min
[17] = target LecA, calculated as Ki from IC50, read-out: Ki ± s.d.
[18] = target LecA, read-out: IC50 ± s.d.

Sequence of LecB PAO1 (Q9HYN5 entry or part of it): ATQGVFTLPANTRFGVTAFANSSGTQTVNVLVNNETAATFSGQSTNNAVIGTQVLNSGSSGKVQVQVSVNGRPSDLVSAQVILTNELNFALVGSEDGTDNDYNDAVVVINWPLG

Row | SMILES | release of antibiotic cargo [3] | release of antibiotic cargo [4] | MIC [5, 9] [µM] | MIC [5, 10] [µM] | MIC [5, 11] [µM] | MIC [5, 12] [µM] | MIC [5, 13] [µM] | MIC [5, 14] [µM] | MIC [5, 15] [µM] | MIC [5, 16] [µM] | also measured
1 | CC(C)C[C@H](NC(=O)CNC(=O)[C@H](C)NC(=O)c1ccc(S(=O)(=O)NC[C@H]2O[C@@H](C)[C@@H](O)[C@@H](O)[C@@H]2O)cc1)C(=O)N[C@@H](C)C(=O)N1CCN(c2cc3c(cc2F)c(=O)c(C(=O)O)cn3C2CC2)CC1 [Compound 25] | do not release ciprofloxacin; also recorded: degradation stopped at the stage of the secondary amide Ala-ciprofloxacin | no significant release of their antibiotic cargo | >25 | >25 | ≥25 | ≥25 | ≥25 | ≥25 | ≥25 |  | IC50 [1]: 4.63 ± 1.99 µM; IC50 ± s.d. [1]: one-digit micromolar range; Ki [1]: 1.92 ± 0.93 µM; IC50 [2]: 1 ± 0.32 µM; Ki ([2]; calculated as Ki from IC50, read-out: Ki ± s.d.): 0.36 ± 0.12 µM
2 | O=C(O)c1cn(C2CC2)c2cc(N3CCNCC3)c(F)cc2c1=O [Compound 1, Ciprofloxacin, reference compound] |  |  |  |  | 0.156 to 0.25 |  |  | 0.156 to 0.313 | 0.156 to 0.313 | 0.25 to 0.313 | 
3 | CC(C)C[C@H](N)C(=O)N[C@@H](C)C(=O)N[C@H]1CCN(c2cc3c(cc2F)c(=O)c(C(=O)O)cn3C2CC2)C1 [Compound 35, 7-((S)-3-((S)-2-((S)-2-amino-4-methylpentanamido)propanamido)pyrrolidin-1-vl)-1-cyclopropyl-6-fluoro-4-oxo-1,4-dihydroquinoline-3-carboxylic acid] |  |  |  |  |  |  |  |  |  |  | release of free drug from dipeptide-conjugates [6]: very slow; also recorded: only slowly released their antibiotic cargo
4 | NC[C@@H]1CCN(c2nc3c(cc2F)c(=O)c(C(=O)O)cn3C2CC2)C1 [Compound 3, (S)-7-(3-(aminomethyl)-1-pyrrolidinyl)-1-cyclopropyl-6-fluoro-1,4-dihydro-4-oxo-1,8-naphthyridine-3-carboxylic acid, reference compound] |  |  |  |  |  |  |  |  |  |  | MIC ([5]; Pseudomonas aeruginosa, PA14, read-out: MIC (parent drug)): 0.29 to 1.45 µM (≈ 0.1 to 0.502 µg/mL)
5 | CC(C)C[C@H](NC(=O)CNC(=O)[C@H](C)NC(=O)CCCCCn1cc(CCN(Cc2ccc(NC(=O)CCc3ccc(O[C@@H]4OC(CO)[C@H](O)C(O)C4O)cc3)cc2)Cc2ccc(NC(=O)CCc3ccc(O[C@@H]4OC(CO)[C@H](O)C(O)C4O)cc3)cc2)nn1)C(=O)N[C@@H](C)C(=O)N[C@H]1CCN(c2cc3c(cc2F)c(=O)c(C(=O)O)cn3C2CC2)C1 (stereo partly shown) [Compound 68] |  |  |  |  |  |  |  |  |  |  | Kd [7]: 0.036 ± 0.048 µM
6 | O=[N+]([O-])c1ccc(S[C@@H]2O[C@H](CO)[C@H](O)[C@H](O)[C@H]2O)cc1 [pNP-β-D-Gal, p-nitrophenyl-β-thio-galactoside, reference compound] |  |  |  |  |  |  |  |  |  |  | IC50 [8]: 61.9 ± 0.6 µM; Ki [8]: 26.9 ± 0.25 µM
7 | CC(C)CC(NC(=O)CNC(=O)C(C)NC(=O)c1ccc(SC2OC(CO)C(O)C(O)C2O)cc1)C(=O)NC(C)C(=O)NCC1CCN(c2cc3c(cc2F)c(=O)c(C(=O)O)cn3C2CC2)C1 (stereo not shown) [Compound 48] | release their antibiotic cargo; also recorded: released a significant amount of their antibiotic cargo; also recorded: efficiently released their antibiotic cargo | no significant release of their antibiotic cargo | >25 | >25 | 1.56 | 1.56 to 3.13 | 1.56 to 3.13 |  | >25 | 3.13 to 12.5 | Ki [8, 17]: 11.2 ± 0.73 µM; IC50 [8, 18]: 28 ± 1.61 µM
8 | CC(C)C[C@H](NC(=O)CNC(=O)[C@H](C)NC(=O)c1ccc(S[C@@H]2O[C@H](CO)[C@H](O)[C@H](O)[C@H]2O)cc1)C(=O)N[C@@H](C)C(=O)N1CCN(c2cc3c(cc2F)c(=O)c(C(=O)O)cn3C2CC2)CC1 [Compound 24] | do not release ciprofloxacin; also recorded: degradation stopped at the stage of the secondary amide Ala-ciprofloxacin | no significant release of their antibiotic cargo | >25 | >25 | ≥25 | ≥25 | ≥25 | ≥25 | ≥25 |  | Ki [8, 17]: 12.9 ± 1.12 µM; IC50 [8, 18]: 31.7 ± 2.46 µM
9 | CC(C)CC(NC(=O)CNC(=O)C(C)NC(=O)c1ccc(S(=O)(=O)NCC2OC(C)C(O)C(O)C2O)cc1)C(=O)NC(C)C(=O)NCC1CCN(c2cc3c(cc2F)c(=O)c(C(=O)O)cn3C2CC2)C1 (stereo not shown) [Compound 49] | release their antibiotic cargo; also recorded: released a significant amount of their antibiotic cargo; also recorded: efficiently released their antibiotic cargo | no significant release of their antibiotic cargo | >25 | >25 | 1.56 to 3.13 | 1.56 to 6.25 | 3.13 to 6.25 |  | ≥25 | 3.13 to 6.25 | IC50 [1]: 4.29 ± 2.99 µM; IC50 ± s.d. [1]: one-digit micromolar range; Ki [1]: 1.75 ± 1.4 µM; MIC ([5]; Matrix 3, <10 min pre-incubation (text b309)): 3.13 µM (≈ 3.13 µg/mL)
